In US7338669B2, “Inorganic boranophosphate salts” (Bar-Ilan University, priority 2005, dated 2008):
Blank lines part the entries; values can stand above or below the compound they belong to.

Tests used:
[1] = comparison value quoted in the text; cited from earlier work
[2] = Stability of BPi towards selected organic and inorganic reagents (31P NMR); assay type: physicochemical
Description: The reactivity of BPi towards various organic and inorganic reagents was explored as part of the characterization of BPi's chemical nature. These reagents include: aqueous acid solution, nitrile, amide, carbodiimide, pyridine and imidazole, tosyl chloride, phosphorous oxychloride, H2, and Zn^2+ and Mg^2+ ions.
Although BH3, in complexes with a variety of sulfur/amine/oxygen compounds, is an efficient reducing agent, its reducing nature is drastically altered in Bpi. For instance, while hydrid transfer from “BH3” to water occurs readily, the BH3 moiety in BPi transfers hydride only in a highly acidic solution (pH<2). Likewise, while BH3.
A carbodiimide reagent is used for the condensations of phosphate to provide the corresponding phosphoric anhydride. […] This finding is in contrast to diethylphosphite (cyano- or methoxycarbonyl)borane analogues, which are stable to dicyclohexylecarbodiimide (DCC) (Vyakaranam et al., 2002).
The reactivity of BPi with imidazole and pyridine was studied. […] The reaction of 5′-DMT-2′-deoxy-thymidine with tetramethyl boranopyrophosphate in the presence of N-methylimidazole was reported to proceed with the partial removal of the borane group. Likewise, when pyridine was used as a solvent, partial removal of the borane group was observed (Wada et al., 2002).
The presence of divalent metal ions such as Zn^2+ and Mg^2+ in DMF and water for 48 h and 4 h, respectively, left BPi unchanged.

[3] = Procedure: The ^31P NMR chemical shift was monitored as a function of the pH. A five-parameter sigmoid function was fitted to the data using Sigma Plot 2000 (SPSS, Inc.): δ=δ0+a/[1+e^−((pH-pH0)/b)]^c The inflection point, which is determined by the second derivative of the fitted sigmoid function, is the pKa value.
The acid-base character of BPi was studied by ^31P NMR—monitored pH-titration, as described in Experimental, (v).

[4] = Solubility of BPi salts in water and organic solvents; assay type: physicochemical
[5] = Stability / decomposition rate of BPi in aqueous solution at different pH, monitored by 31P NMR; assay type: physicochemical
Procedure: The decomposition rate was determined by measuring changes in the integration of the respective NMR signals within 96 h.
BPi is stable in neutral and basic solutions.
The borane reacts with water to liberate hydrogen gas and boric acid.

Compound: O=[PH](O)O [phosphorus acid]
pKa, higher of the two comparison values [1]: 6.2
pKa, lower of the two comparison values (phosphoric acid: second protonation equilibrium) [1]: 1.8

degraded to phosphorus acid (P—B bond cleavage) ([2]; excess EDC, water pH 6.5, 37° C., 4 h, 31P NMR): 72%
pKa (first inflection point) [3]: 7.12
pKa (second inflection point) [3]: 12.54
Compound: Ammonium Boranophosphate [Compound 2a]

Compound: Tributylammonium Boranophosphate [Compound 2b]
solubility in organic solvents ([4]; organic solvents such as MeOH, CH3CN, DMF, CHCl3): dissolves only in organic solvents

water solubility ([4]; in water): high water solubility
stability with imidazole ([2]; 2 or 10 equiv. imidazole in CD3OD, 96 h, 31P NMR): remained unchanged
stability with divalent metal ions ([2]; Zn^2+ and Mg^2+ in DMF and water for 48 h and 4 h, respectively): unchanged
stability in acetonitrile and dimethyl formamide ([2]; acetonitrile and dimethyl formamide solutions, no reduction of the solvent): complete stability
stability in pyridine ([2]; solution in pyridine, 113 h): negligible cleavage of the P—B bond
stability in neutral and basic solutions ([5]; neutral and basic solutions): stable
t1/2 of degradation to phosphorus acid ([5]; pH 2, room temperature, 31P NMR): 11.5 days
rate of degradation to phosphorus acid ([5]; pH 2, room temperature, 31P NMR, R^2=1.00): 7e-07 s⁻¹
degradation observed by 31P NMR ([5]; pH 13.7, 48 h, room temperature): no degradation
behaviour under highly acidic conditions ([5]; pH<2, H2 evolved, boric acid and phosphorus acid formed): the P—B bond is cleaved
stability in acidic solution ([5]; pH>2): relatively stable
Compound: inorganic boranophosphate [BPi]
